Source: ChEMBL document CHEMBL5137044, “Expansion of the S-CN-DABO scaffold to exploit the impact on inhibitory activities against the non-nucleoside HIV-1 reverse transcriptase” (Eur J Med Chem, 2022)

Legend:
[1] = system: Human immunodeficiency virus 1; test: Antiviral activity against […] HIV-1 infected in human MT4 cells assessed as reduction in virus-induced cytopathic effect incubated for 5 days by MTT assay; type: functional, organism-based; settings: Human immunodeficiency virus 1, MT4, 120 h
[2] = Selectivity index, ratio of CC50 for human MT4 cells to EC50 for antiviral activity against NNRTI resistant HIV-1 infected in human MT4 cells; type: toxicity, cell-based; settings: read-out: Ratio CC50/EC50
[3] = system: Human immunodeficiency virus 1; test: Antiviral activity against drug-resistant HIV-1 L100I mutant infected in human MT4 cells assessed as reduction in virus-induced cytopathic effect incubated for 5 days by MTT assay; type: functional, organism-based; settings: Human immunodeficiency virus 1, L100I mutant, MT4, 120 h
[4] = system: Human immunodeficiency virus 1; test: Antiviral activity against drug-resistant HIV-1 K103 N mutant infected in human MT4 cells assessed as reduction in virus-induced cytopathic effect incubated for 5 days by MTT assay; type: functional, organism-based; settings: Human immunodeficiency virus 1, K103 N mutant, MT4, 120 h
[5] = system: Human immunodeficiency virus 1; test: Antiviral activity against drug-resistant HIV-1 Y181C mutant infected in human MT4 cells assessed as reduction in virus-induced cytopathic effect incubated for 5 days by MTT assay; type: functional, organism-based; settings: Human immunodeficiency virus 1, Y181C mutant, MT4, 120 h
[6] = system: Human immunodeficiency virus 1; test: Antiviral activity against drug-resistant HIV-1 Y188L mutant infected in human MT4 cells assessed as reduction in virus-induced cytopathic effect incubated for 5 days by MTT assay; type: functional, organism-based; settings: Human immunodeficiency virus 1, Y188L mutant, MT4, 120 h
[7] = system: Human immunodeficiency virus 1; test: Antiviral activity against drug-resistant HIV-1 E138K mutant infected in human MT4 cells assessed as reduction in virus-induced cytopathic effect incubated for 5 days by MTT assay; type: functional, organism-based; settings: Human immunodeficiency virus 1, E138K mutant, MT4, 120 h
[8] = Fold resistance, ratio of EC50 for antiviral activity against drug-resistant HIV-1 L100I mutant infected in human MT4 cells to EC50 for antiviral activity against […] HIV-1 infected in human MT4 cells; type: functional
[9] = Fold resistance, ratio of EC50 for antiviral activity against drug-resistant HIV-1 K103 N mutant infected in human MT4 cells to EC50 for antiviral activity against […] HIV-1 infected in human MT4 cells; type: functional
[10] = Fold resistance, ratio of EC50 for antiviral activity against drug-resistant HIV-1 Y181C mutant infected in human MT4 cells to EC50 for antiviral activity against […] HIV-1 infected in human MT4 cells; type: functional
[11] = Fold resistance, ratio of EC50 for antiviral activity against drug-resistant HIV-1 Y188L mutant infected in human MT4 cells to EC50 for antiviral activity against […] HIV-1 infected in human MT4 cells; type: functional
[12] = Fold resistance, ratio of EC50 for antiviral activity against drug-resistant HIV-1 E138K mutant infected in human MT4 cells to EC50 for antiviral activity against […] HIV-1 infected in human MT4 cells; type: functional
[13] = Cytotoxicity against human MT4 cells assessed as cell growth inhibition incubated for 5 days by MTT assay; type: toxicity, cell-based; settings: time 5 day
[14] = target: Human immunodeficiency virus type 1 reverse transcriptase (Human immunodeficiency virus 1, UniProt Q72547); test: Inhibition of recombinant wild-type p66/p51 HIV-1 reverse transcriptase incubated for 40 mins by picogreen dye-based spectrofluorometric analysis

Row | Compound | EC50 [1] [µM] | selectivity ratio [2] | EC50 [3] [µM] | EC50 [4] [µM] | EC50 [5] [µM] | EC50 [6] [µM] | EC50 [7] [µM] | Ratio EC50 [8] | Ratio EC50 [9] | Ratio EC50 [10] | Ratio EC50 [11] | Ratio EC50 [12] | CC50 at 120 h [13] [µM] | IC50 [14] [µM]
1 | Cc1cn([C@H]2C[C@H](N=[N+]=[N-])[C@@H](CO)O2)c(=O)[nH]c1=O [ZIDOVUDINE] | 0.0229 | > 309 | 0.0084 | 0.0287 | 0.0242 | 0.0108 | 0.0268 | 0.4 | 1 | 1 | 0.5 | 1 | – | –
2 | Cc1c(C(C#N)c2cccc(Cl)c2)nc(SC(C)C)[nH]c1=O (stereo not given) | 0.35 | 493 | 11.2 | 50.3 | 7.27 | > 69.7 | 0.87 | 32 | 144 | 21 | >199 | 2 | 172 | 0.713
3 | Cc1ccc(C(C#N)c2nc(SC(C)C)[nH]c(=O)c2C)cc1 (stereo not given) | 0.32 | 40 | > 12.9 | > 12.9 | > 12.9 | > 12.9 | 0.63 | >40 | >40 | >40 | >40 | 2 | 12.8 | 0.667
4 | Cc1c(C(C#N)c2cccnc2Cl)nc(SC(C)C)[nH]c1=O (stereo not given) | 1.14 | 221 | 23.8 | 53.6 | > 60.9 | > 251 | 1.56 | 21 | 47 | >53 | >221 | 1 | 251 | 13.1
5 | Cc1c(C(C#N)c2ccc(Cl)cc2)nc(SC(C)C)[nH]c1=O (stereo not given) | 1.26 | 56 | > 14.4 | > 70.2 | > 70.2 | > 70.2 | 4.19 | >11 | >56 | >56 | >56 | 3 | 70.2 | 3.37
6 | Cc1c(C(C#N)c2ccc(C(C)C)cc2)nc(SC(C)C)[nH]c1=O (stereo not given) | 0.6 | 376 | 5.51 | > 225 | 10.2 | > 225 | 1.5 | 9 | >375 | 17 | >375 | 3 | 225 | 2.15
7 | Cc1c(C(C#N)c2ccc(-c3ccccc3)cc2)nc(SC(C)C)[nH]c1=O (stereo not given) | > 30.5 | < 1 | – | – | – | – | – | – | – | – | – | – | 30.5 | –
8 | Cc1c(C(C#N)c2cc(C(F)(F)F)cc(C(F)(F)F)c2)nc(SC(C)C)[nH]c1=O (stereo not given) | 27.4 | – | > 278 | > 287 | 186 | > 287 | 224 | >10 | >10 | 7 | >10 | 8 | 287 | 55.1
9 | Cc1cc(C#N)cc(C)c1Oc1nc(Nc2ccc(C#N)cc2)nc(N)c1Br [ETRAVIRINE] | – | > 1620 | 0.0115 | 0.0034 | 0.0162 | – | 0.0092 | 4 | 1 | 6 | 7 | 3 | 4.6 | –
10 | Cc1ccnc2c1NC(=O)c1cccnc1N2C1CC1 [NEVIRAPINE] | 0.17 | – | 2.57 | 8.1 | 7.71 | > 15 | 0.198 | – | – | – | – | – | – | –
11 | O=C1Nc2ccc(Cl)cc2[C@@](C#CC2CC2)(C(F)(F)F)O1 [EFAVIRENZ] | – | – | 0.0371 | 0.0942 | 0.0071 | 0.205 | 0.0062 | – | – | – | – | – | – | –
